From patent publication US20170312293A1, “ANTIMICROBIAL WATER DISPERSIBLE COMPOSITION COMPRISING ZINC PYRITHIONE” (KOLON LIFE SCIENCE, INC., priority 2014, published 2017)
Where a name gives a salt, the structure may show the parent alone.

Assays:
[1] = Stability of zinc pyrithione aqueous dispersion: layer separation degree via centrifugation, naked eye; assay type: physicochemical; settings: zinc pyrithione aqueous dispersion including the antiseptic, layer separation degree (supernatant height / total height) via centrifugation
Description: (§1) First, a zinc pyrithione aqueous dispersion including an antiseptic which was identified to have antiseptic activity was prepared and then stored at room temperature (R.T.), at a temperature ranging from 10° C. to 20° C., or 60° C., and variation in physical properties related to stability and dispersibility were checked.
(§2) Variation in physical properties was determined depending on whether or not assay, viscosity, pH and particle size were changed, and variation in dispersibility was determined by checking layer separation degree using centrifugation and measuring dispersion stability using Turbiscan for detecting particle size variation and phase separation.
Stability was evaluated by checking a layer separation degree (production of supernatant) using centrifugation by the naked eye and was divided into grades based on the proportion of the height of the layer-separated supernatant with respect to the total height of the sample. With respect to the grades, layer separation degree (production of supernatant) of less than 5% was regarded as “high”, layer separation degree of 10% or less was regarded as “medium-high”, layer separation degree of 15% or less was regarded as “medium”, layer separation degree of 20% or less was regarded as “medium-low” and layer separation degree of higher than 20% was regarded as “low”.

[2] = Dispersion stability by Turbiscan (Turbiscan stability index); assay type: physicochemical; settings: zinc pyrithione aqueous dispersion with the antiseptic stored at 60° C. for 2 weeks, lower = more stable, 0 = no variation
Description: as §1, §2
Meanwhile, from the result of determination of stability via separate testing of the zinc pyrithione aqueous dispersion composition using the Turbiscan, it could seen that the result obtained by storing at 60° C. for 2 weeks was similar to the result obtained by storing at room temperature for 3 months. Therefore, stability of the zinc pyrithione aqueous dispersion was compared based on stability index (Turbiscan stability index) associated with the result obtained by storing the test subject substances at 60° C. for 2 weeks.
In addition, the stability of conventionally used antiseptics was measured as Turbiscan-related stability and the result thus obtained is shown as a stability index in the following Table 2. […]

Escherichia coli = assay: Challenge test (antibiotic activity) against E. coli; assay type: cell-based; settings: day on which all strains completely died; inoculum 1.0×10^6 cells/ml, 37° C., sampling days 1, 2, 3, 7; sample without zinc pyrithione, pH 5.5 to 9.0
Description: (§3) Respective samples were inoculated with three kinds of bacteria and two kinds of fungus and cultured for 7 days in order to measure antibiotic activity. On the first, second, third and seventh days, sampling was conducted, the sample was spread on a solid medium and antibiotic activity was checked. Strains used to measure antibiotic activity were Escherichia coli, Staphylococcus aureus, Pseudomonas aeruginosa for bacteria, and Candida albicans and Aspergillus niger for fungus. Regarding the media used respectively for the strains, TSA (tryptic soy agar) and NB (nutrient broth) were used for the three types of bacteria, and SDA (Sabouraud dextrose agar) and YM (yeast extract and malt extract) were used for Candida albicans (C. albicans), and SDA (Sabouraud dextrose agar) and MD (malt extract and dextrose) were used for Aspergillus niger (A. niger).
(§4) Antibiotic activity was evaluated based on the day on which all strains completely died, rather than lived and grew in the sample spread on the solid medium. First day death was considered to be excellent, second day death was considered to be good, third day death was considered to be medium, seventh day death was considered to be bad and no death until the seventh day was considered to be extremely bad.
(§5) A more detailed test method is as follows. […] 50 g of an aqueous dispersion supplemented with a suitable concentration of antibiotic agent was added to the container to prepare a sample. In consideration of the test method, in order to test zinc pyrithione having antibiotic activity, antibiotic activity of zinc pyrithione was preferably removed using a neutralization agent, but water was inevitably used to adjust a predetermined volume without adding zinc pyrithione due to absence of a suitable neutralization agent.
(§6) The prepared sample was inoculated with 1.0×10^6 cells/ml of E. coli, S. aureus and P. aeruginosa, and with 1.0×10^5 cells/ml of C. albicans and A. niger. Then, E. coli, S. aureus and P. aeruginosa were cultured at 37° C., while C. albicans and A. niger were cultured at 30° C. At the point of times of 1, 2, 3 and 7 days after culture, […] of the sample was obtained and spread on a solid medium and E. coli, S. aureus and P. aeruginosa were then cultured at 37° C. for 1 day for, and C. albicans and A. niger were cultured at 30° C. for 2 days. Then, whether the strains were alive or dead was checked. The respective antiseptics were used with reference to optimal pH, dosage and MIC recommended by the company of manufacture, wherein the test pH conditions were pH 5.5 to 9.0 at which zinc pyrithione was stable.

Aspergillus niger = assay: Challenge test (antibiotic activity) against A. niger; assay type: cell-based; settings: for Challenge test A. niger (antibiotic activity grade): day on which all strains completely died, inoculum 1.0×10^5 cells/ml, 30° C., sampling days 1, 2, 3, 7, sample without zinc pyrithione, pH 5.5 to 9.0
Description: as §3, §4, §5, §6

Pseudomonas aeruginosa = assay: Challenge test (antibiotic activity) against P. aeruginosa; assay type: cell-based; settings: day on which all strains completely died; inoculum 1.0×10^6 cells/ml, 37° C., sampling days 1, 2, 3, 7; sample without zinc pyrithione, pH 5.5 to 9.0
Description: as §3, §4, §5, §6

Staphylococcus aureus = assay: Challenge test (antibiotic activity) against S. aureus; assay type: cell-based; settings: day on which all strains completely died; inoculum 1.0×10^6 cells/ml, 37° C., sampling days 1, 2, 3, 7; sample without zinc pyrithione, pH 5.5 to 9.0
Description: as §3, §4, §5, §6

Candida albicans = assay: Challenge test (antibiotic activity) against C. albicans; assay type: cell-based; settings: day on which all strains completely died; inoculum 1.0×10^5 cells/ml, 30° C., sampling days 1, 2, 3, 7; sample without zinc pyrithione, pH 5.5 to 9.0
Description: as §3, §4, §5, §6

Row | Compound | Stability of zinc pyrithione aqueous dispersion [1] | Stability index at 60° C. × 2 weeks [2] | Challenge test E. coli (antibiotic activity grade) (Escherichia coli) | Challenge test A. niger (antibiotic activity grade) (Aspergillus niger) | Challenge test P. aeruginosa (antibiotic activity grade) (Pseudomonas aeruginosa) | Challenge test S. aureus (antibiotic activity grade) (Staphylococcus aureus) | Challenge test C. albicans (antibiotic activity grade) (Candida albicans) | Antibiotic activity to A. niger (Aspergillus niger; conclusion in words from the challenge test)
1 | CCCCC(O)CO (stereo not shown) [1,2-hexanediol] | Medium (layer separation degree of 15% or less was regarded as “medium”) | – | – | – | – | – | – | –
2 | CCCCCCC(O)CO (stereo not shown) [1,2-octanediol] | Medium (layer separation degree of 15% or less was regarded as “medium”) | – | – | – | – | – | – | –
3 | OCc1ccccc1 [Benzyl alcohol] | Medium-low (layer separation degree of 20% or less was regarded as “medium-low”) | – | – | – | – | – | – | –
4 | CC1(C)C(=O)N(CO)C(=O)N1CO [DMDMH, dimethylol dimethylhydantoin, reference compound] | High (layer separation degree (production of supernatant) of less than 5% was regarded as “high”) | 3.9 | Excellent (First day death was considered to be excellent) | Excellent (First day death was considered to be excellent) | Excellent (First day death was considered to be excellent) | Excellent (First day death was considered to be excellent) | Excellent (First day death was considered to be excellent) | –
5 | Cn1sccc1=O [MIT, methylisothiazolinone, reference compound] | High (layer separation degree (production of supernatant) of less than 5% was regarded as “high”) | 3.9 | Excellent (First day death was considered to be excellent) | Excellent (First day death was considered to be excellent) | Excellent (First day death was considered to be excellent) | Excellent (First day death was considered to be excellent) | Excellent (First day death was considered to be excellent) | –
6 | C/C=C/C=C/C(=O)[O-].[K+] [Potassium sorbate] | – | – | Good (second day death was considered to be good) | Good (second day death was considered to be good) | Good (second day death was considered to be good) | Good (second day death was considered to be good) | – | –
7 | O=C([O-])c1ccccc1.[Na+] [Sodium benzoate] | – | – | Good (second day death was considered to be good) | Good (second day death was considered to be good) | Good (second day death was considered to be good) | Good (second day death was considered to be good) | – | –
8 | O=S([O-])S(=O)(=O)[O-].[Na+].[Na+] [Sodium metabisulfite] | – | – | Good (second day death was considered to be good) | Good (second day death was considered to be good) | Good (second day death was considered to be good) | Good (second day death was considered to be good) | – | –
9 | O=C([O-])c1ccccc1O.[Na+] [Sodium salicylate] | – | – | Good (second day death was considered to be good) | Good (second day death was considered to be good) | Good (second day death was considered to be good) | Good (second day death was considered to be good) | – | –
10 | O=S([O-])[O-].[Na+].[Na+] [Sodium sulfite] | High (layer separation degree (production of supernatant) of less than 5% was regarded as “high”) | – | Good (second day death was considered to be good) | Good (second day death was considered to be good) | Good (second day death was considered to be good) | Good (second day death was considered to be good) | – | –
11 | Cc1ncc(C[n+]2csc(CCO)c2C)c(N)n1 [Thiamine dilauryl sulfate, thiamine dilauryl sulphate] | – | – | Good (second day death was considered to be good) | Bad (seventh day death was considered to be bad) | Good (second day death was considered to be good) | Excellent (First day death was considered to be excellent) | Good (second day death was considered to be good) | vulnerable
12 | Ethylhexyl glycerin | – | – | Good (second day death was considered to be good) | Medium (third day death was considered to be medium) | Extremely bad (no death until the seventh day was considered to be extremely bad) | Good (second day death was considered to be good) | Good (second day death was considered to be good) | –
